Data on 37 molecules can be found in patent US5272054A, “Assay by enzyme-catalyzed isotopic exchange” (Syntex (U.S.A.) Inc., priority 1992, dated 1993).

The first assay has as its system 21-hydroxysteroid dehydrogenase. The assay can be described thus: Isotopic exchange assay using 21-hydroxysteroid dehydrogenase: specificity. Type of assay: biochemical, sheep.
Conditions: not given
The procedure:
Cortisol and 21-dehydrocortisol are determined using AND dependent 21-hydroxysteroid dehydrogenase from sheep liver obtained by the procedure of Monder, C.; Furfine, C. S. "Methods in Enzymology", vol. […] 21-hydroxy-derivatives of cortisol, cortisone, corticosterone, 11-deoxycortisol, Δ^1 -cortisone, Δ^1 -cortisol, 11-deoxycorticosterone, and 9α-fluorocortisol will all be assayed using this enzyme.
As for “nicotinamide adenine dinucleotide phosphate [NAD(P)]”, the “replacement of NAD as cofactor” value is “will not replace NAD”.

The next assay has as its system 15-hydroxyprostaglandin dehydrogenase. The assay can be described thus: Isotopic exchange assay using 15-hydroxyprostaglandin dehydrogenase: specificity. Type of assay: biochemical, pig.
Conditions: not given
The procedure: 11α,15-dihydroxy-9-oxoprost-13-enoate and 11α-hydroxy-9, 15-dioxoprost-13-enoate are determined using 15-hydroxyprostaglandin dehydrogenase from pig lung obtained by the procedure of Anggard, E.; Samuelsson, B. "Methods in Enzymology", vol. 14, page 215 (Academic Press, New York, 1969), pages 215-219 of which are incorporated herein by reference. The assay will detect most 15-hydroxy or 15-oxo-prostaglandins except those containing the dienone chromophore such as prostaglandin B compounds and their 19-hydroxylated derivatives.
Consider “nicotinamide adenine dinucleotide phosphate [NAD(P)]”, for which the “replacement of NAD as cofactor” value is reported as “will not replace NAD”.

For another assay, the system named is D-lactate dehydrogenase. Briefly: Isotopic exchange assay using D-lactate dehydrogenase: specificity. Type of assay: biochemical. The conditions noted are these: D-lactate / pyruvate assay, enzyme from Lactobacillus plantarum. The procedure:
D-lactate and pyruvate in plasma are determined using D-lactate dehydrogenase from Lactobacillus leichmannii (Sigma or Boehringer-Mannheimbiochemicals) obtained by the procedure of Brandt, R. B. "Methods in Enzymology", vol. 89, page 35 (Academic Press, New York, 1982), pages 35-40 of which are incorporated herein by reference. The assay will detect D-lactate concentrations in plasma from 0.006 to 1.2 mM and at higher concentrations in food or microbiological samples. If the enzyme is from Lactobacillus plantarum obtained according to Dennis, D.; Kaplan, N. O. J. Bio.
Take `CCCC[C@@H](O)C(=O)O`: the “interference with assay results” value is reported as “will not interfere with the assay results”.

For the molecule `C[C@H](O)C(=O)O` [L-lactate], the “interference with assay results” value is listed as “will not interfere with the assay results”.

Turning to `CC(C)C[C@@H](O)C(=O)O`, the “interference with assay results” value is given as “will not interfere with the assay results”.

`CC[C@@H](O)C(=O)O` [2-hydroxy-D-butyrate]: the “interference with assay results” value is recorded as “will not interfere with the assay results”.

On to `CC(C)[C@@H](O)C(=O)O` [Disovalerate], for which the “interference with assay results” value is recorded as “will not interfere with the assay results”.

Still in this assay, the particulars now being: enzyme from Lactobacillus plantarum.
On to “nicotinamide adenine dinucleotide phosphate [NAD(P)]”, for which the “replacement of NAD as cofactor” value is “will not replace NAD”.

Another assay has as its system ω-hydroxydecanoate dehydrogenase. Briefly: Isotopic exchange assay using ω-hydroxydecanoate dehydrogenase: specificity. Type of assay: biochemical, rabbit. The following applies: 10-hydroxydecanoate / 10-oxodecanoate assay. The text has this: The enzyme obtained will be contaminated to some degree with L-lactate dehydrogenase (I.U.B. 1.1.1.27).
Turning to `N[C@@H](CO)C(=O)O` [serine], the “interference with assay results” value is on record as “will not interfere with assay results”.

Regarding `CCO` [ethanol], the “interference with assay results” value was “will not interfere with assay results”.

Take `Cc1ncc(CO)c(CO)c1O` [pyridoxine]: the “interference with assay results” value was “will not interfere with assay results”.

As to `C[C@@H](O)[C@H](N)C(=O)O` [threonine], the “interference with assay results” value is listed as “will not interfere with assay results”.

Turning to `NCCO` [ethanolamine], the “interference with assay results” value is “will not interfere with assay results”.

The same assay, now with this note: value in brackets after the substrate.
Turning to `O=C(O)CCCCCCCCCCO` [11-hydroxy undecanoate], the “relative rate of reaction” value was determined as 100.

In the case of `O=C(O)CCCCCCCCCO` [10-hydroxycaproate], the “relative rate of reaction” value turned out to be 0.90.

The next assay concerns soluble 17β-hydroxysteroid dehydrogenase. The assay can be described thus: Isotopic exchange assay using 17β-hydroxysteroid dehydrogenase: specificity. Type of assay: biochemical, human.
Conditions: not given
As to the method: Estradiol-17β and estrone are determined using soluble 17β-hydroxysteroid dehydrogenase from human term placenta obtained by the procedure of Jarabak, J. "Methods in Enzymology", vol.
Take `C[C@H](O)[C@H]1CC[C@H]2[C@@H]3CCC4=CC(=O)CC[C@]4(C)[C@H]3CC[C@]12C` [20α-hydroxy derivative]: the “rate of reaction relative to estrone” value is “one-fiftieth”.

Consider `CC(=O)[C@H]1CC[C@H]2[C@@H]3CCC4=CC(=O)CC[C@]4(C)[C@H]3CC[C@]12C` [Progesterone], for which the “rate of reaction relative to estrone” value was “one-fiftieth”.

The same assay, now with this note: estradiol-17β / estrone assay.
Consider `C[C@]12CC[C@@H]3c4ccc(O)cc4CC[C@H]3[C@@H]1C[C@H](O)C2` [16β-estradiol], for which the “interference with assay results” value is reported as “will not interfere with the assay results”.

The subject of another assay is homoserine dehydrogenase. The assay can be described thus: Isotopic exchange assay using homoserine dehydrogenase: specificity. Type of assay: biochemical, Baker's Yeast.
Conditions: not given
The procedure:
Homoserine and aspartic-β-semialdehyde are determined using homoserine dehydrogenase from Baker's Yeast (Anheuser-Busch) obtained by the procedure of Black, S. "Methods in Enzymology", vol. V, page 820 (Academic Press, New York, 1962), pages 824-827 of which are incorporated herein by reference. […] Other non-interfering substances will include 3-aminopropanol, γ-hydroxybutyrate, acetaldehyde, DL-threonine, DL-serine, and DL-homocysteine. DL-glutamic γ-semialdehyde will react at 1% of the rate of aspartic-β-semialdehyde.
`NC(CCC=O)C(=O)O` (racemic) [DL-glutamic γ-semialdehyde]: the “rate of reaction relative to aspartic-β-semialdehyde” value was 1%.

Staying with this assay, now noted: homoserine / aspartic-β-semialdehyde assay.
`CC=O` [acetaldehyde]: the “interference with assay results” value is reported as “non-interfering”.

Take `C[C@@H](O)[C@H](N)C(=O)O` (racemic) [DL-threonine]: the “interference with assay results” value is given as “non-interfering”.

With `NCCCO` [3-aminopropanol], the “interference with assay results” value was “non-interfering”.

`NC(CO)C(=O)O` (racemic) [DL-serine]: the “interference with assay results” value is recorded as “non-interfering”.

Regarding `NC(CCS)C(=O)O` (racemic) [DL-homocysteine], the “interference with assay results” value is recorded as “non-interfering”.

Another assay has as its system fructuronate reductase. The assay can be described thus: Isotopic exchange assay using fructuronate reductase: specificity. Type of assay: biochemical, Escheria coli K-12 strain S 3000 (Hfr H).
Conditions: not given
The procedure: D-mannonate and D-fructuronate are determined using fructuronate reductase from Escheria coli K-12 strain S 3000 (Hfr H) obtained by the procedure of Portalier, R.; Stoeber, F. "Methods in Enzymology", vol. 89, page 210 (Academic Press, New York, 1982), pages 210-218 of which are incorporated herein by reference. […] D-tagaturonate and D-altronate are 20% as active as D-fructuronate and D-mannonate, respectively.
Consider “nicotinamide adenine dinucleotide phosphate [NAD(P)]”, for which the “substitution for NAD as cofactor” value is reported as “will not substitute for AND”.

Staying with this assay, now noted: D-mannonate / D-fructuronate assay.
As for `O=C(CO)[C@@H](O)[C@H](O)[C@H](O)[C@H](O)CO` [D-altro-heptulose], the “interference with assay results” value is reported as “will not interfere with assay results”.

`O=C[C@H](O)[C@H](O)[C@H](O)CO` [D-ribose]: the “interference with assay results” value is “will not interfere with assay results”.

Consider `O=C[C@H](O)[C@@H](O)[C@H](O)[C@H](O)CO` [D-glucose], for which the “interference with assay results” value is listed as “will not interfere with assay results”.

As to `O=C[C@H](O)[C@H](O)[C@@H](O)CO` [L-lyxose], the “interference with assay results” value was “will not interfere with assay results”.

Regarding `O=C(CO)[C@@H](O)[C@@H](O)[C@H](O)CO` [D-tagatose], the “interference with assay results” value was “will not interfere with assay results”.

For the molecule `O=C(CO)[C@H](O)[C@H](O)CO` [D-ribulose], the “interference with assay results” value is reported as “will not interfere with assay results”.

Consider `O=C[C@H](O)[C@@H](O)[C@H](O)CO` [D-xylose], for which the “interference with assay results” value is on record as “will not interfere with assay results”.

As for `O=C[C@@H](O)[C@@H](O)[C@H](O)[C@H](O)CO` [D-mannose], the “interference with assay results” value is on record as “will not interfere with assay results”.

As for `O=C[C@H](O)[C@@H](O)[C@@H](O)CO` [L-arabinose], the “interference with assay results” value is recorded as “will not interfere with assay results”.

In the case of `O=C[C@H](O)[C@@H](O)[C@@H](O)[C@H](O)CO` [D-galactose], the “interference with assay results” value is “will not interfere with assay results”.

`O=C[C@@H](O)[C@H](O)[C@H](O)CO` [D-arabinose]: the “interference with assay results” value is recorded as “will not interfere with assay results”.

Regarding `O=C[C@@H](O)[C@H](O)[C@@H](O)CO` [L-xylose], the “interference with assay results” value is given as “will not interfere with assay results”.

Regarding `O=C(CO)[C@H](O)[C@@H](O)[C@H](O)CO` [D-sorbose], the “interference with assay results” value is “will not interfere with assay results”.

As to `O=C(CO)[C@@H](O)[C@H](O)[C@H](O)CO` [D-fructose], the “interference with assay results” value was “will not interfere with assay results”.

Consider `O=C[C@@H](O)[C@@H](O)[C@H](O)[C@H](O)C(O)CO` (stereo partly drawn) [D-manno-heptose], for which the “interference with assay results” value is given as “will not interfere with assay results”.
